Source: patent publication US20250002960A1, “COMPOSITIONS AND METHODS FOR NUCLEIC ACID EXTENSION” (Pacific Biosciences of California, Inc., priority 2023, published 2025)
Read-outs that look alike come from different tables or passages of the source.

Columns and labels:
[1] = test system: NO bond at the 3′ position of a polynucleotide; assay: Octet/CE cyclic extension assay (SBB extension cycles, extended primer length read by capillary electrophoresis); type: biochemical
Description: The polynucleotides were Cy3-primers hybridized to biotinylated template DNA which were in turn bound to streptavidin coated tips of the Octet system. The Octet system move a set of 8 tips between the wells of a heated 96-well plate, for a set number of SBB extension cycles. Each cycle included an IMG step under conditions at which fluorescent nucleotides of ternary complexes could be imaged, an RTN step in which amineoxy terminated nucleotides were incorporated at the 3′ end of the primer by a polymerase, a wash step that removes excess nucleotides, and a CLV step that exposes the amineoxy terminated extended primer to a deblocking agent or candidate. The length of extended polynucleotides were then detected by capillary electrophoresis (CE), as described in US Patent Pub. No. 2019/0241945, the content of which is incorporated herein.
Polynucleotide sequence was synthesized using the Octet/CE method where non-extendable polynucleotides having a 3′ amineoxy group were used to reversibly stop extension, as shown in the workflow scheme of FIG. 1A.
(§1) CDP was formulated with a number of different buffers at different pH and various different amines as solubility enhancers. 47 formulations were made and tested. In general, CDP was dissolved in water and loaded onto Dowex 50™ cation exchange resin, and incubated for a few minutes. The resin was eluted with an aqueous solution of the amine solubility enhancer. The resulting solution was either used directly in Octet/CE assays or dried form a solid that was very soluble in water.
A number of other carbonyl compounds were test for their ability to cleave the NO bond at the 3′ position of a polynucleotide, according to the assay design shown in FIG. 1A.
Deblocking candidates were tested at various concentrations, generally between 1 and 100 mM (e.g., at 1 mM, 2 mM, 4 mM, 8 mM, 20 mM, 35 mM, 40 mM, 70 mM, and/or 100 mM for different candidates), in acetate (1 M) and tris (0.2 M) buffers, and buffered at pH 6 or 8, with and without amine counterion.

[2] = test system: library of polynucleotides; assay: Sequencing-by-binding run, On/Off signal intensity by cycle; type: biochemical; details: after 150 cycles, CDP versus SOP (sodium NO2)
Experimental: A library of polynucleotides were sequenced in a sequencing-by-binding workflow, and On/Off signal intensity was measured in each sequencing cycle, as described in US Patent Pub. No. 2020/0032317, the content of which is incorporate herein. Specifically, ‘on’ signal intensity (corresponds to the binding of the cognate nucleotide) and ‘off’ signal intensity (corresponds to the binding of the non-cognate nucleotide) in each SBB cycle. By using [NaNO2] 2 M and considering pH 5.2 and based on Henderson-Hasselbalch equation, we calculated that 18 mM of the nitrous acid exists in CLV (Cleave) reagent. Although, this cleave formulation is efficient in converting dNTP-RT to dNTP on the sequencing strand, however, it may have one or more disadvantages, such as instability, corrosivity, and/or DNA damage. Regarding instability: nitrous acid in our current CLV reagent degrades and produces nitrogen oxide gas (NOx) which weaken strength of the deblocking reagent. Nitrous acid is very corrosive and has […] with plastics consumables and instruments.
Y axis is on/off intensities. […] A library of polynucleotides were sequenced in a sequencing-by-binding workflow, and On/Off signal intensity was measured in each sequencing cycle, as described in US Patent Pub. […]

[3] = Solubility of the deblocking agent in the deblocking composition; type: physicochemical; details: in words
Experimental: as §1

[4] = compared to SOP cleave in sodium acetate buffer, in words

COP(=O)([O-])C(C)=O.[Na+] [methyl acetylphosphonate, methyl acetylphosphonate CH3—CO—PO(Ome)—O^− Na^+, reference compound]
Extension at 40 C. in 37 cycles Octet CE assay [1]: No Extension

O=Cc1ccc(S(=O)(=O)[O-])cc1S(=O)(=O)[O-].[Na+].[Na+] [Di sodium 4-formylbenzene-1,3-disolfonate]
Extension at 40 C. in 37 cycles Octet CE assay [1]: 3 bp Extension | Extension at 52 C. in 37 cycles octet/Ce assay [1]: 3 bp Extension | cleavage of NO bond (deblocking, extension in multiple cycles) ([1]; in words): deblocking

CNC(=O)NC [Dimethyl urea, reference compound]
Extension at 40 C. in 37 cycles Octet CE assay [1]: No Extension

CCC(=O)CP(=O)([O-])[O-].[Na+].[Na+] [Di sodium (2-oxobutyl)phosphonate]
Extension at 40 C. in 37 cycles Octet CE assay [1]: 4 bp Extension | Extension at 52 C. in 37 cycles octet/Ce assay [1]: 4 bp Extension | cleavage of NO bond (deblocking, extension in multiple cycles) ([1]; in words): deblocking

CC(=O)P(=O)([O-])[O-].[Na+].[Na+] [Di sodium acetylphosphonate]
Extension at 40 C. in 37 cycles Octet CE assay [1]: 12 bp Extension | Extension at 52 C. in 37 cycles octet/Ce assay [1]: 3 bp Extension | cleavage of NO bond (deblocking, extension in multiple cycles) ([1]; in words): deblocking

O=C(P(=O)(O)O)P(=O)(O)O [CDP, Carbonyl diphosphonate]
cleavage of NO bond (deblocking, extension in multiple cycles) [1]: comparable to NaNO2 | negative phasing ([1]; 37 cycles of extension): 0.21% | positive phasing ([1]; 37 cycles of extension): 0.17% | Extension at 40 C. in 37 cycles Octet CE assay [1]: 37 bp Extension | negative dephasing on electropherogram [1, 4]: higher negative dephasing | positive dephasing on electropherogram [1, 4]: higher positive dephasing | dephasing of product ([1]; compared to SOP, in words): minimal dephasing | cleavage of NO bond (deblocking, extension in multiple cycles) ([1]; in words): deblocking | signal to noise ratio [2]: comparable | solubility issue [3]: slight solubility issue

Hydroxycarbamide [reference compound]
Extension at 40 C. in 37 cycles Octet CE assay [1]: No extension

CS(=O)(=O)CC(=O)c1ccccc1 [Methyl sulfonyl acetophenone]
Extension at 40 C. in 37 cycles Octet CE assay [1]: 5 bp Extension | Extension at 52 C. in 37 cycles octet/Ce assay [1]: 5 bp Extension | cleavage of NO bond (deblocking, extension in multiple cycles) ([1]; in words): deblocking

O=N[O-].[Na+] [NaNO2, sodium nitrite, reference compound]
negative phasing [1]: 0.04% | positive phasing [1]: 0.05%

CC(=O)OP(=O)([O-])[O-].[K+].[Li+] [LiK Aceyl Phosphate, reference compound]
Extension at 40 C. in 37 cycles Octet CE assay [1]: No Extension
